≈ marks a conversion by molar mass, not a printed value. Where two headings read alike, the source gives them in different places.
Key:
[1] = system: Shewanella putrefaciens; settings: cited from earlier work
[2] = system: Halamphora coffeaeformis; settings: cited from earlier work
[3] = system: Pleurochrysis roscoffensis; settings: cited from earlier work
[4] = system: Vibrio carchariae; settings: cited from earlier work
[5] = system: Porphyridium purpureum; settings: cited from earlier work
[6] = system: Balanus improvisus cyprid larvae; settings: cited from earlier work
[7] = system: Pleurochrysis roscoffensis; settings: cited from earlier work; remark: listed apart in the source
[8] = system: Vibrio proteolyticus; settings: cited from earlier work
[9] = system: Vibrio aestuarianus; settings: cited from earlier work
[10] = system: Vibrio carchariae; settings: cited from earlier work; remark: listed apart in the source
[11] = system: Porphyridium purpureum; settings: cited from earlier work; remark: listed apart in the source
[12] = system: Ciona savignyi; set-up: method as in Moodie et al. [2017b]; settings: ref Moodie et al. [2017b], cited from earlier work
[13] = system: Vibrio aestuarianus; settings: cited from earlier work; remark: listed apart in the source
[14] = system: Halomonas aquamarina; settings: cited from earlier work
[15] = system: Halamphora coffeaeformis; settings: cited from earlier work; remark: listed apart in the source
[16] = system: Roseobacter litoralis; settings: cited from earlier work
[17] = system: marine bacteria; settings: panel of marine bacteria; ref Moodie et al. [2017b]; cited from earlier work
[18] = system: Pseudoalteromonas elyakovii; settings: cited from earlier work
[19] = system: Vibrio harveyi; settings: cited from earlier work
[20] = system: Vibrio harveyi; settings: cited from earlier work; remark: listed apart in the source
[21] = system: Vibrio natriegens; settings: cited from earlier work
[22] = system: Cylindrotheca closterium; settings: cited from earlier work
[23] = system: Cylindrotheca closterium; settings: cited from earlier work; remark: listed apart in the source
[24] = system: Halomonas aquamarina; settings: cited from earlier work; remark: listed apart in the source
[25] = system: Vibrio proteolyticus; settings: cited from earlier work; remark: listed apart in the source
[26] = system: Balanus improvisus cyprid larvae; assay: whole plant or invertebrate; format: in vivo; settings: Amphibalanus improvisus, 120 h, read-out: IC50 (cyprid settlement inhibition)
Description: Cyprid larvae of B. improvisus were reared in a laboratory cultivating system at Tjärnö Marine Biological Laboratory, University of Gothenburg, Sweden, as previously described by Berntsson et al. ([2000]). Four pure, but non-axenic, marine microalgae (obtained from Algobank, Caen, France) and 10 marine bacterial strains were used (Table 1) as representative microfoulers. These strains represent fouling species encountered in both estuarine and marine environments (Moodie et al. [2017b]). The bacteria were grown at 26 °C in a marine medium, composed of 0.5% peptone (neutralized bacteriological peptone, Oxoid Ltd.) in filtered (Whatman 1001–270, pore size 11 μm) natural seawater. Microalgae were grown and maintained at 22 °C in F/2 medium.
Stock solutions of compounds in DMSO were serially diluted in untreated polystyrene Petri dishes containing 10 mL of filtered (0.2 μm) seawater, affording final concentrations ranging from 0.1 to 10 μg/mL. Freshly molted balanide cyprids (18–22) were added to each Petri dish and incubated at ambient temperature (20–25 °C) for 5 days. Cyprid metamorphosis was assessed using a dissecting microscope where the numbers of juvenile settled, free-swimming, and dead cyprids were noted. Initial compound screening was conducted at 5 μg/mL, and full IC50 determination was performed only on compounds displaying > 50% inhibition at that concentration. The IC50 was defined as the concentration preventing 50% of the cyprid settlement on the Petri dish surface. Each concentration was replicated four times (n = 4), and dishes containing 0.1% of DMSO were used as negative controls. The commercial AF agent Sea-nine™ was employed as a positive control.

COc1ccc(CCc2ccccc2)cc1OC [Compound 2]
MIC against the growth of marine bacteria, S.p. ([1]; ref Moodie et al. ([2017b])): 0.1 µg/mL | MIC against the growth (G) of microalgae, H. coffeaformis ([2]; ref Moodie et al. ([2017b])): 0.01 µg/mL | MIC against the growth (G) of microalgae, P. roscoffensis ([3]; ref Moodie et al. ([2017b])): 0.01 µg/mL | MIC against the adhesion of marine bacteria, V.c. ([4]; ref Moodie et al. ([2017b])): – (Not active at > 10 μg/mL) | MIC against the adhesion (A) of microalgae, P. purpureum ([5]; ref Moodie et al. ([2017b])): 10 µg/mL | IC50 (cyprid settlement inhibition) ([6]; B. improvisus, ref Moodie et al. ([2017b])): 0.75 µg/mL (≈ 3.1 µM) | Toxicity (%) (dead cyprids) ([6]; B. improvisus, reported at 5 μg/mL, ref Moodie et al. ([2017b])): 5.3% | toxicity, in words ([6]; Balanus improvisus, ref Moodie et al. [2017b]): low toxicity | MIC against the adhesion (A) of microalgae, P. roscoffensis ([7]; ref Moodie et al. ([2017b])): 1 µg/mL | MIC against the adhesion of marine bacteria, V.p. ([8]; ref Moodie et al. ([2017b])): – (Not active at > 10 μg/mL) | MIC against the growth of marine bacteria, V.a. ([9]; ref Moodie et al. ([2017b])): 10 µg/mL | MIC against the growth of marine bacteria, V.c. ([10]; ref Moodie et al. ([2017b])): – (Not active at > 10 μg/mL) | MIC against the growth (G) of microalgae, P. purpureum ([11]; ref Moodie et al. ([2017b])): 1 µg/mL | inhibition of settlement, in words ([12]; even after 5 days): effectively inhibited | IC50 (settlement inhibition) [12]: 1.1 µg/mL (≈ 4.54 µM) | toxicity, in words [12]: low toxicity | MIC against the adhesion of marine bacteria, V.a. ([13]; ref Moodie et al. ([2017b])): – (Not active at > 10 μg/mL) | MIC against the adhesion of marine bacteria, H.a. ([14]; ref Moodie et al. ([2017b])): – (Not active at > 10 μg/mL) | MIC against the adhesion (A) of microalgae, H. coffeaformis ([15]; ref Moodie et al. ([2017b])): 1 µg/mL | MIC against the growth of marine bacteria, R.l. ([16]; ref Moodie et al. ([2017b])): 10 µg/mL | Activity against bacterial adhesion [17]: inactive | MIC against the growth of marine bacteria, P.e. ([18]; ref Moodie et al. ([2017b])): 10 µg/mL | MIC against the adhesion of marine bacteria, V.h. ([19]; ref Moodie et al. ([2017b])): – (Not active at > 10 μg/mL) | MIC against the growth of marine bacteria, V.h. ([20]; ref Moodie et al. ([2017b])): – (Not active at > 10 μg/mL) | MIC against the growth of marine bacteria, V.n. ([21]; ref Moodie et al. ([2017b])): – (Not active at > 10 μg/mL) | MIC against the adhesion (A) of microalgae, C. closterium ([22]; ref Moodie et al. ([2017b])): 0.1 µg/mL | MIC against the growth (G) of microalgae, C. closterium ([23]; ref Moodie et al. ([2017b])): 0.01 µg/mL | MIC against the growth of marine bacteria, H.a. ([24]; ref Moodie et al. ([2017b])): 0.01 µg/mL | MIC against the growth of marine bacteria, V.p. ([25]; ref Moodie et al. ([2017b])): – (Not active at > 10 μg/mL)

CCCCCCCCn1sc(Cl)c(Cl)c1=O [Sea-nine™]
MIC against the growth of marine bacteria, S.p. ([1]; ref Trepos et al. ([2015])): 1 µg/mL | MIC against the growth (G) of microalgae, H. coffeaformis ([2]; ref Trepos et al. ([2015])): < 0.01 µg/mL | MIC against the growth (G) of microalgae, P. roscoffensis ([3]; ref Trepos et al. ([2015])): < 0.01 µg/mL | MIC against the adhesion of marine bacteria, V.c. ([4]; ref Trepos et al. ([2015])): < 0.01 µg/mL | MIC against the adhesion (A) of microalgae, P. purpureum ([5]; ref Trepos et al. ([2015])): < 0.01 µg/mL | MIC against the adhesion (A) of microalgae, P. roscoffensis ([7]; ref Trepos et al. ([2015])): < 0.01 µg/mL | MIC against the adhesion of marine bacteria, V.p. ([8]; ref Trepos et al. ([2015])): 0.01 µg/mL | MIC against the growth of marine bacteria, V.a. ([9]; ref Trepos et al. ([2015])): < 0.01 µg/mL | MIC against the growth of marine bacteria, V.c. ([10]; ref Trepos et al. ([2015])): < 0.01 µg/mL | MIC against the growth (G) of microalgae, P. purpureum ([11]; ref Trepos et al. ([2015])): < 0.01 µg/mL | MIC against the adhesion of marine bacteria, V.a. ([13]; ref Trepos et al. ([2015])): 1 µg/mL | MIC against the adhesion of marine bacteria, H.a. ([14]; ref Trepos et al. ([2015])): < 0.01 µg/mL | MIC against the adhesion (A) of microalgae, H. coffeaformis ([15]; ref Trepos et al. ([2015])): < 0.01 µg/mL | IC50 [26]: 0.25 µg/mL (≈ 0.886 µM) | MIC against the growth of marine bacteria, R.l. ([16]; ref Trepos et al. ([2015])): 1 µg/mL | MIC against the growth of marine bacteria, P.e. ([18]; ref Trepos et al. ([2015])): 0.1 µg/mL | MIC against the adhesion of marine bacteria, V.h. ([19]; ref Trepos et al. ([2015])): 1 µg/mL | MIC against the growth of marine bacteria, V.h. ([20]; ref Trepos et al. ([2015])): 1 µg/mL | MIC against the growth of marine bacteria, V.n. ([21]; ref Trepos et al. ([2015])): 1 µg/mL | MIC against the adhesion (A) of microalgae, C. closterium ([22]; ref Trepos et al. ([2015])): < 0.01 µg/mL | MIC against the growth (G) of microalgae, C. closterium ([23]; ref Trepos et al. ([2015])): < 0.01 µg/mL | MIC against the growth of marine bacteria, H.a. ([24]; ref Trepos et al. ([2015])): 0.1 µg/mL | MIC against the growth of marine bacteria, V.p. ([25]; ref Trepos et al. ([2015])): 0.01 µg/mL

— publication PMC5889410, “Design and Biological Evaluation of Antifouling Dihydrostilbene Oxime Hybrids” (Marine Biotechnology (New York, N.y.), 2018)
